Results on three compounds are retold here after ChEMBL document CHEMBL1629646, “Continuous cefazolin infusion to treat bone and joint infections: clinical efficacy, feasibility, safety, and serum and bone concentrations” (Antimicrob Agents Chemother, 2009).

Data set [1] relates to Bacillus pumilus. As to the kind of experiment: Antimicrobial activity against Bacillus pumilus SJ1554. It counts as functional.
Data set [2] in a line: Drug level in patient serum with bone and joint infection at 60 to 80 mg/kg/day, iv administered as continuous infusion for 42 days measured from day 2 to 10 by agar disk diffusion assay. The note with it: human, read-out: Drug uptake. It is filed as ADME, organism-based. Further details: route intravenous. In general terms: In agar diffusion tests the substance spreads into inoculated agar from a disc or well.

The test system of data set [3] is Streptococcus. As to the kind of experiment: Antimicrobial activity against Streptococcus. It counts as functional.
Data set [4] has as its system Staphylococcus. As to the kind of experiment: Ratio of drug level in patient serum with bone and joint infection to MIC90 for drug-susceptible Staphylococci.
Data set [5] relates to Staphylococcus. As to the kind of experiment: Antimicrobial activity against methicillin-susceptible Staphylococcus. It is filed as functional.
A short description of data set [6]: Drug level in patient serum with bone and joint infection at 60 to 80 mg/kg/day, iv administered as continuous infusion for 42 days measured from day 11 to 21 by agar disk diffusion assay. Further details: route intravenous. It counts as ADME, organism-based. The note with it: human, read-out: Drug uptake.
Data set [7] is described as follows: Drug level in patient bone with bone and joint infection measured per gram of tissue at 60 to 80 mg/kg/day, iv administered as continuous infusion for 42 days measured on day 7 by agar disk diffusion assay. Further details: route intravenous. The note with it: human, in vivo, 1008 h. It is filed as ADME, organism-based, Bone element.
Data set [8] in a line: Ratio of drug level in bone to serum in patient with bone and joint infection at 60 to 80 mg/kg/day, iv administered as continuous infusion for 42 days. The settings on record: human. It counts as ADME, organism-based. Further details: route intravenous.
The test system of data set [9] is Nucleic Acid. As to the kind of experiment: Ratio of drug level in patient bone with bone and joint infection to MIC90 for drug-susceptible Staphylococci. It is filed as functional.

Structures are written as SMILES. Values after ≈ are worked out from the molar mass of the structure shown.

For `C[C@@H]1O[C@@H]1P(=O)(O)O` [FOSFOMYCIN], the minimum inhibitory concentration (MIC) (usually the least concentration at which growth counts as inhibited) in data set [1] was > 512 µg/mL.
As for `Cc1nnc(SCC2=C(C(=O)O)N3C(=O)[C@@H](NC(=O)Cn4cnnn4)[C@H]3SC2)s1` [CEFAZOLIN], the figures for the concentration at 1008 h in data set [2] and in data set [6] were 63 µg/mL and 57 µg/mL, respectively. The MIC90 (usually the lowest concentration that inhibits either 90% of growth or 90% of the strains tested, depending on the study) in data set [3] came out at 0.1 µg/mL (≈ 0.22 µM); in [5], 1 µg/mL (≈ 2.2 µM). For the same compound, the Ratio in [4] stood at 60.8; in [9], 5. For the same compound, the bone concentration in data set [7] is 13.5 µg/g. The concentration ratio (Kp) (in general, the ratio of the level in a tissue or fluid to that in plasma or blood) at 1008 h in data set [8] stood at 0.25.
With `CO[C@H]1/C=C/O[C@@]2(C)Oc3c(C)c(O)c4c(O)c(c(/C=N/N5CCN(C)CC5)c(O)c4c3C2=O)NC(=O)/C(C)=C\C=C\[C@H](C)[C@H](O)[C@@H](C)[C@@H](O)[C@@H](C)[C@H](OC(C)=O)[C@@H]1C` [RIFAMPIN], the MIC in [1] was > 128 µg/mL.
